# Measurements as given in patent US7119082B2, “11β-long-chain-substituted 19-nor-17α-pregna-1,3,5(10)-trien-17β-ols with a 21,16α-lactone ring” (priority 2002, dated 2006).
# Where two headings read alike, the source gives them in different places.
# Legend:
# [1] = target: T1, estrogen receptor from the rat uterus (Rattus norvegicus, UniProt P06211); assay: Estrogen receptor binding, rat uterus cytosol, competition with 3H-estradiol
# T1 construct: The preparation of rat uterus cytosol as well as the receptor test with the estrogen-receptor-containing cytosol; from tissue; host or cells: rat uterus cytosol
# T1 sequence (P06211 1-600): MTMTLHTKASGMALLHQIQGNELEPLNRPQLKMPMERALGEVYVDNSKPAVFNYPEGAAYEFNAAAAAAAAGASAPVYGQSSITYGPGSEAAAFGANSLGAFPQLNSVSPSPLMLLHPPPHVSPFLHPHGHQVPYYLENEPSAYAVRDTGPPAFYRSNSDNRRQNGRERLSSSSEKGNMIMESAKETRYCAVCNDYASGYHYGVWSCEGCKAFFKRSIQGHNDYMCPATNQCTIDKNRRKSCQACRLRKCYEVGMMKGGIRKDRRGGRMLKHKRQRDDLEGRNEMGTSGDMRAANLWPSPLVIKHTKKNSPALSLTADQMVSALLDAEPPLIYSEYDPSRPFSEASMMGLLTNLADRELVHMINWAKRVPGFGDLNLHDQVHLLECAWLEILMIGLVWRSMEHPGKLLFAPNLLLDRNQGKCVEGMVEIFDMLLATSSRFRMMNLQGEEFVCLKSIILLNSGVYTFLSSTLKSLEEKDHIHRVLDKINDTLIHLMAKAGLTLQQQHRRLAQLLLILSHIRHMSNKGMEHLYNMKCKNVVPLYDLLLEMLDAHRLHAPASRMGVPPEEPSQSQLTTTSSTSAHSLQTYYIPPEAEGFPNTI
# [2] = test system: estrogen receptor from the rat uterus; assay: as above
# [3] = test system: estrogen receptor from the rat prostate; assay: Estrogen receptor binding, rat prostate cytosol, competition with 3H-estradiol; conditions: for Rat Prostate ER (RBA): Table 1, 3H-estradiol as ligand
# hER β [4] = assay: Relative binding affinity to hER β (cited from Kuiper et al.); parameters: species or system human; conditions: Table 2; quotient of the cited RBA values
# Text: In this case, it is assumed that ERβ predominates in the rat prostate over ERα, and ERα predominates in the rat uterus over ERβ.
# hER β [5] = conditions: Table 2; cited from Kuiper et al. (1996), Endocrinology 138: 863-870; cited from earlier work
# [6] = test system: MCF-7 breast cancer cells; assay: Cell proliferation assay, estradiol-stimulated MCF-7, crystal violet; format: cell-based; conditions: Homo sapiens, MCF7, 168 h; concentration 10^-5 M; 7 days; FIG. 1
# [7] = relative binding affinity, estradiol = 100
smiles,measurement,setting,value
C[C@]12CC[C@H](O)CC1=CCC1C2CC[C@@]2(C)C1CC[C@@H]2O (stereo partly shown) [5-Andros-ten-diol],Rat uterus ER(RBA),[1],0.1
same,Uterus-ER/Prostata-ER,"[2]; Table 2, ratio of rat ER RBA values as headed",50
same,Rat prost. ER(RBA),[3],5
same,ERβ/ERα,hER β [4],3
same,hER β RBA,hER β [5],17
"CCCCCC[C@H]1C[C@@]2(C)C(C[C@H]3OC(=O)C[C@]32O)C2CCc3cc(O)ccc3C21 (stereo partly drawn) [Compound 1, 3,17β-Dihydroxy-11β-hexyl-19-nor-17α-pregna-1,3,5(10)-triene-21,16α-lactone]",Rat uterus ER(RBA),"[1]; Table 1, relative binding affinity, estradiol = 100, 3H-estradiol as ligand",26.2
same,Uterus-ER/Prostate-ER,"[2]; Table 1, ratio of RBA rat uterus ER to rat prostate ER",22
same,"Binding affinity, rat uterus ER compared with rat prostate ER (in words)",[2]; see Table 1,higher binding affinity to the estrogen receptor from the rat uterus than to the estrogen receptor from the rat prostate
same,Rat Prostate ER (RBA),[3]; [7],1.2
same,inhibition at 10 µM,[6],100%
C[C@]12CCC3c4ccc(O)cc4CCC3C1CC[C@@H]2O (stereo partly shown) [Estradiol],Rat Prostate ER (RBA),[3]; [7],100
same,Rat prost. ER(RBA),"[3]; Table 2, relative binding affinity, estradiol = 100",100
C[C@]12CC[C@@H]3c4ccc(O)cc4CC[C@H]3[C@@H]1C[C@@H](O)[C@@H]2O [Estriol],hER β RBA,hER β [5],21
